# Assay results published in patent US20120058999A1, “Substituted Tetrahydropyrrolopyrazine Compounds” (Gruenenthal GmbH, priority 2010, published 2012).
# Tests used:
# human B1R = target: T1, human B1R (Homo sapiens, UniProt P46663); assay: Functional investigation on the bradykinin 1 receptor, cell-based fluorescent calcium-mobilization assay (FLIPR), human; details: 10 μM test substance; CHO K1 cells transfected with human B1R gene; agonist Lys-Des-Arg9-bradykinin at EC80; % of maximum achievable inhibition
# T1 construct: expressed in transfected cells; host or cells: CHO K1 cells (stably transfected)
# T1 sequence (P46663 1-353): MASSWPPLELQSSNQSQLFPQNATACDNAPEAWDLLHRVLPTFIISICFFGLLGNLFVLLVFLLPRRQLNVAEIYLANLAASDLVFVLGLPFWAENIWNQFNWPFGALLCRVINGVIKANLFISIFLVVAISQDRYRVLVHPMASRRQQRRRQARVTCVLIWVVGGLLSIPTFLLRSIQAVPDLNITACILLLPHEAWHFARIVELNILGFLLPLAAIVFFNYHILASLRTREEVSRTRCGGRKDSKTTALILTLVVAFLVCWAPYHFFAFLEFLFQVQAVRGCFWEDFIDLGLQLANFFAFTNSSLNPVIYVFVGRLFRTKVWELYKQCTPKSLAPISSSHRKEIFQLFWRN
# Protocol: (§1) The agonistic or antagonistic action of substances can be quantified on the bradykinin 1 receptor (B1R) of the human and rat species with ectopically expressing cell lines (CHO K1 cells) and with the aid of a Ca2+-sensitive dye (Fluo-4) using a fluorescent imaging plate reader (FLIPR). The value in % activation is based on the Ca2+ signal after addition of Lys-Des-Arg9 bradykinin (0.5 nM) or Des-Arg9 bradykinin (100 nM). Antagonists lead to a suppression of the Ca2+ influx following administration of the agonist. The % inhibition in comparison with the maximum achievable inhibition is indicated.
# (§2) The agonistic or antagonistic action of substances can be determined on the bradykinin 1 receptor (B1R) of humans and rats by means of a cell-based fluorescent calcium-mobilization assay. According to this assay agonist-induced increase of intracellular free Ca^2+ is quantified by means of a Ca^2+-sensitive dye (Fluo-4 type, Molecular Probes Europe BV, Leiden, Netherlands), in a Fluorescent Imaging Plate Reader (FLIPR, Molecular Devices, Sunnyvale, USA) and/or the Novostar (BMG Labtech GmbH, Offenburg, Germany).
# (§3) Chinese hamster ovary cells (CHO K1 cells), which are stably transfected with the human B1R gene (hB1R cells), or with the B1R gene of rats (rB1R cells) are used. For functional investigations these cells are seeded into black 96-well plates with a clear bottom (BD Biosciences, Heidelberg, Germany or Greiner, Frickenhausen, Germany) in a density of 20,000-35,000 cells/well. The cells are incubated overnight in a humidified atmosphere at 37° C. and 5% CO2 in culture medium (hB1R cells: Nutrient Mixture Ham's F12, Gibco Invitrogen GmbH, Karlsruhe, Germany or DMEM, Sigma-Aldrich, Taufkirchen, Germany; rB1R cells: D-MEM/F12, Gibco Invitrogen GmbH, Karlsruhe, Germany) with 10 vol. % FBS (foetal bovine serum, Gibco Invitrogen GmbH, Karlsruhe, Germany). On the following day the cells are loaded with the Ca^2+-sensitive dye Fluo-4-AM (Molecular Probes Europe BV, Leiden, Netherlands):
# (§4) Method A: The medium of the cells is removed and cell plates are incubated with loading solution, which contains 2.13 μM Fluo-4-AM, 2.5 mM probenecid (Sigma-Aldrich, Taufkirchen, Germany), and 10 mM HEPES (Sigma-Aldrich, Taufkirchen, Germany) in HBSS buffer (Hank's buffered saline solution, Gibco Invitrogen GmbH, Karlsruhe, Germany) for 60 minutes at 37° C. After the plates are washed twice with HBSS buffer, HBSS buffer supplemented 0.1% BSA (bovine serum albumin; Sigma-Aldrich, Taufkirchen, Germany), 5.6 mM glucose and 0.05% gelatine (Merck KGaA, Darmstadt, Germany) is added. Cell plates are incubated for at least 20 minutes in the dark at room temperature before they are used for the Ca^2+ measurement in the FLIPR or Novostar. Method B: The plates are washed with buffer A (15 mM HEPES, 80 mM NaCl, 5 mM KCl, 1.2 mM CaCl2, 0.7 mM MgSO4, 2 mg/ml glucose, 2.5 mM probenecid) and subsequently loaded with buffer A containing 2.4 μM Fluo-4-AM and 0.025% pluronic F127 (Sigma-Aldrich, Taufkirchen, Germany) for 60 minutes at 37° C. Cell plates are washed twice with buffer A. Then, buffer A supplemented with 0.05% BSA and 0.05% gelatine is added and cell plates are incubated in the dark at room temperature for at least 20 minutes before measurement in the FLIPR or Novostar is started.
# (§5) The Ca^2+-dependent fluorescence is measured both before and after the addition of substances (λex=488 nm, λem=540 nm). For quantification of the effect the highest fluorescence intensity (FC, fluorescence counts) over time is given.
# (§6) The FLIPR protocol consists of two substance additions, done within the instrument while continuously monitoring the Ca^2+-dependent fluorescence at 540 nm. When the Novostar was used, one addition had to be done outside the instrument. First of all test substances (10 μM) are pipetted onto the cells and the intracellular Ca^2+ rise is compared with the control (hB1R: Lys-Des-Arg9-bradykinin >=50 nM; rB1R: Des-Arg9-bradykinin >=1 μM). […]
# rat B1R = target: T2, rat B1R (Rattus norvegicus, UniProt P97583); assay: Functional investigation on the bradykinin 1 receptor, cell-based fluorescent calcium-mobilization assay (FLIPR), rat; details: 10 μM test substance; CHO K1 cells transfected with rat B1R gene; agonist Des-Arg9-bradykinin at EC80; % of maximum achievable inhibition
# T2 construct: expressed in transfected cells; host or cells: CHO K1 cells (stably transfected)
# T2 sequence (P97583 1-337): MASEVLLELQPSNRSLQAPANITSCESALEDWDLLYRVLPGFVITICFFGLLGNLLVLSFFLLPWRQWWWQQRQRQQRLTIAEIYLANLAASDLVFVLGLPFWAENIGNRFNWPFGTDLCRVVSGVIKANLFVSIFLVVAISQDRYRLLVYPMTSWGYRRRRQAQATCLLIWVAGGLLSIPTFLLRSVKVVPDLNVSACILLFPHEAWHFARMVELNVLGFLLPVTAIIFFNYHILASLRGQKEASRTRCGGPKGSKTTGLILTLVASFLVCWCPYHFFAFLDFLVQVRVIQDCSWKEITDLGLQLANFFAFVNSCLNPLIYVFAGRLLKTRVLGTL
# Protocol: as §1, §2, §3, §4, §5, §6
SMILES,inhibition at 10 µM (human B1R) [%],inhibition at 10 µM (rat B1R) [%]
"COc1cc(C)c(S(=O)(=O)N2CCn3cccc3C2COCC(=O)N(C)[C@H]2CCC[C@@H](N3CCN(C)CC3)C2)c(C)c1 (relative stereo) [CC-01, 2-[[2-[(4-Methoxy-2,6-dimethyl-phenyl)sulfonyl]-1,2,3,4-tetrahydro-pyrrolo[1,2-a]pyrazin-1-yl]-methoxy]-N-methyl-N-[cis-3-(4-methyl-piperazin-1-yl)-cyclohexyl]-acetamide]",100,105
"COc1cc(C)c(S(=O)(=O)N2CCn3cccc3C2CCCC(=O)N(C)[C@H]2CCC[C@@H](N3CCN(C)CC3)C2)c(C)c1 (relative stereo) [CC-02, 4-[2-[(4-Methoxy-2,6-dimethyl-phenyl)sulfonyl]-1,2,3,4-tetrahydro-pyrrolo[1,2-a]pyrazin-1-yl]-N-methyl-N-[cis-3-(4-methyl-piperazin-1-yl)-cyclohexyl]-butyramide]",87,104
"COc1ccc2cc(S(=O)(=O)N3CCn4cccc4C3CC(=O)N(C)[C@H]3CCC[C@@H](N4CCN(C)CC4)C3)ccc2c1 (relative stereo) [CC-04, 2-[2-[(6-Methoxy-naphthalen-2-yl)sulfonyl]-1,2,3,4-tetrahydro-pyrrolo[1,2-a]pyrazin-1-yl]-N-methyl-N-[cis-3-(4-methyl-piperazin-1-yl)-cyclohexyl]-acetamide]",100,103
"CN1CCN([C@@H]2CCC[C@H](N(C)C(=O)CCC3c4cccn4CCN3S(=O)(=O)c3cccc(C(F)(F)F)c3)C2)CC1 (relative stereo) [CC-05, N-Methyl-N-[cis-3-(4-methyl-piperazin-1-yl)-cyclohexyl]-3-[2-[[3-(trifluoromethyl)phenyl]sulfonyl]-1,2,3,4-tetrahydro-pyrrolo[1,2-a]pyrazin-1-yl]-propionamide]",43,91
"COc1cc(C)c(S(=O)(=O)N2CCn3cccc3C2COCC(=O)N[C@H]2CCC[C@@H](N3CCN(C)CC3)C2)c(C)c1 (relative stereo) [CC-06, 2-[[2-[(4-Methoxy-2,6-dimethyl-phenyl)sulfonyl]-1,2,3,4-tetrahydro-pyrrolo[1,2-a]pyrazin-1-yl]-methoxy]-N-[cis-3-(4-methyl-piperazin-1-yl)-cyclohexyl]-acetamide]",96,100
"COc1ccc2cc(S(=O)(=O)N3CCn4cccc4C3CC(=O)N[C@H]3CCC[C@@H](N4CCN(C)CC4)C3)ccc2c1 (relative stereo) [CC-09, 2-[2-[(6-Methoxy-naphthalen-2-yl)sulfonyl]-1,2,3,4-tetrahydro-pyrrolo[1,2-a]pyrazin-1-yl]-N-[cis-3-(4-methyl-piperazin-1-yl)-cyclohexyl]-acetamide]",100,–
"COc1cc(C)c(S(=O)(=O)N2CCn3cccc3C2COCC(=O)N(C)C2CCCC(N3CCN(C(C)C)CC3)C2)c(C)c1 (stereo not shown) [CC-50, N-[3-(4-Isopropyl-piperazin-1-yl)-cyclohexyl]-2-[[2-[(4-methoxy-2,6-dimethyl-phenyl)sulfonyl]-1,2,3,4-tetrahydro-pyrrolo[1,2-a]pyrazin-1-yl]-methoxy]-N-methyl-acetamide]",99,–
"COc1cc(C)c(S(=O)(=O)N2CCn3cccc3C2CCCC(=O)N(C)C2CCCC(N3CCN(C(C)C)CC3)C2)c(C)c1 (stereo not shown) [CC-51, N-[3-(4-Isopropyl-piperazin-1-yl)-cyclohexyl]-4-[2-[(4-methoxy-2,6-dimethyl-phenyl)sulfonyl]-1,2,3,4-tetrahydro-pyrrolo[1,2-a]pyrazin-1-yl]-N-methyl-butyramide]",99,–
"COc1ccc2cc(S(=O)(=O)N3CCn4cccc4C3CC(=O)N(C)C3CCCC(N4CCN(C(C)C)CC4)C3)ccc2c1 (stereo not shown) [CC-52, N-[3-(4-Isopropyl-piperazin-1-yl)-cyclohexyl]-2-[2-[(6-methoxy-naphthalen-2-yl)sulfonyl]-1,2,3,4-tetrahydro-pyrrolo[1,2-a]pyrazin-1-yl]-N-methyl-acetamide]",100,–
"CC(C)N1CCN(C2CCCC(N(C)C(=O)CCC3c4cccn4CCN3S(=O)(=O)c3cccc(C(F)(F)F)c3)C2)CC1 (stereo not shown) [CC-53, N-[3-(4-Isopropyl-piperazin-1-yl)-cyclohexyl]-N-methyl-3-[2-[[3-(trifluoromethyl)phenyl]sulfonyl]-1,2,3,4-tetrahydro-pyrrolo[1,2-a]pyrazin-1-yl]-propionamide]",87,–
"COc1cc(C)c(S(=O)(=O)N2CCn3cccc3C2COCC(=O)N(C)C2CCCC(N3CCOCC3)C2)c(C)c1 (stereo not shown) [CC-54, 2-[[2-[(4-Methoxy-2,6-dimethyl-phenyl)sulfonyl]-1,2,3,4-tetrahydro-pyrrolo[1,2-a]pyrazin-1-yl]-methoxy]-N-methyl-N-(3-morpholin-4-yl-cyclohexyl)-acetamide]",98,–
"COc1cc(C)c(S(=O)(=O)N2CCn3cccc3C2CCCC(=O)N(C)C2CCCC(N3CCOCC3)C2)c(C)c1 (stereo not shown) [CC-55, 4-[2-[(4-Methoxy-2,6-dimethyl-phenyl)sulfonyl]-1,2,3,4-tetrahydro-pyrrolo[1,2-a]pyrazin-1-yl]-N-methyl-N-(3-morpholin-4-yl-cyclohexyl)-butyramide]",88,–
"COc1ccc2cc(S(=O)(=O)N3CCn4cccc4C3CC(=O)N(C)C3CCCC(N4CCOCC4)C3)ccc2c1 (stereo not shown) [CC-56, 2-[2-[(6-Methoxy-naphthalen-2-yl)sulfonyl]-1,2,3,4-tetrahydro-pyrrolo[1,2-a]pyrazin-1-yl]-N-methyl-N-(3-morpholin-4-yl-cyclohexyl)-acetamide]",99,–
"CN(C(=O)CCC1c2cccn2CCN1S(=O)(=O)c1cccc(C(F)(F)F)c1)C1CCCC(N2CCOCC2)C1 (stereo not shown) [CC-57, N-Methyl-N-(3-morpholin-4-yl-cyclohexyl)-3-[2-[[3-(trifluoromethyl)phenyl]sulfonyl]-1,2,3,4-tetrahydro-pyrrolo[1,2-a]pyrazin-1-yl]-propionamide]",39,–
